Results as given in patent US20240251785A1, “SMALL MOLECULE ANTAGONISTS AND AGONISTS OF ARTHROPOD KININ RECEPTORS FOR PEST CONTROL” (The Texas A&M University System, priority 2021, published 2024).
Where two headings read alike, the source gives them in different places.

Key:
[1] = target: recombinant tick kinin receptor (BMLK3) (Rhipicephalus microplus, UniProt Q9NHA4); test: Dose-response dual-addition calcium fluorescence assay on BMLK3 cells; format: cell-based; settings: for EC50: read-out: BMLK3 EC50; for validation mark in dose-response assay: Table 3
[2] = system: vector-only (V/O) CHO-K1 cells; test: Dose-response dual-addition calcium fluorescence assay on vector-only cells; format: cell-based; settings: for IC50: read-out: V/O antagonist IC50
[3] = system: R. microplus kinin receptor; test: High-throughput dual-addition calcium fluorescence screen on BMLK3 cells; format: cell-based, Rhipicephalus microplus; settings: for agonist NPA (%): compound 2 μmol L^−1, first addition, relative to FFFSWGa 500 nmol L^−1; for antagonist Io (%): compound 2 μmol L^−1, 5 min, then FFFSWGa 500 nmol L^−1
[4] = virtual hit molecules, dual-addition assay, recombinant tick kinin receptor (BMLK3) cells
[5] = virtual hit molecules, dual-addition assay, recombinant tick kinin receptor (BMLK3) cells, read-out: BMLK3 antagonist IC50
[6] = virtual hit molecules, dual-addition assay, vector-only cell (V/O)
[7] = first addition, 20 concentrations 28 nM-25 μM
[8] = second addition Rhimi-K-1 1 μmol L^−1, read-out: BMLK3 IC50
[9] = V/O cells, second addition Rhimi-K-1 1 μmol L^−1

Sequence of recombinant tick kinin receptor (BMLK3) (Q9NHA4 entry or part of it): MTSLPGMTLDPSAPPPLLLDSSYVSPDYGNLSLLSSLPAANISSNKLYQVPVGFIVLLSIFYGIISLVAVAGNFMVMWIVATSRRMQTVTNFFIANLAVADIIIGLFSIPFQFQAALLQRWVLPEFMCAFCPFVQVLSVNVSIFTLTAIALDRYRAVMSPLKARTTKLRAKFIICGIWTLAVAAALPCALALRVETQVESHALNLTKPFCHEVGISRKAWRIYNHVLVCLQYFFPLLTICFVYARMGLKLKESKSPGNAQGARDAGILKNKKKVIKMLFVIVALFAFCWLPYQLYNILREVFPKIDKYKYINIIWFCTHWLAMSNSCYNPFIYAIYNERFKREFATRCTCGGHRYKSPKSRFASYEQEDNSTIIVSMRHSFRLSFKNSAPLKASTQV

Compound	EC50 [1, 4]	IC50 [1, 5]	EC50 [2, 6]	IC50 [2, 6]	agonist NPA (%) [3]	validation mark in dose-response assay [1]	EC50 [1, 7]	IC50 [1, 8]	EC50 ([2]; V/O cells, first addition)	IC50 [2, 9]	antagonist Io (%) [3]
O=C(c1ccco1)N1CCN(c2cccc3scc(-c4cccs4)c23)CC1 [SACC-0117388]	0.124 µM	13.2 µM	1.78 µM	8.39 µM							
COc1ccc(C=Nn2c(C(F)(F)F)n[nH]c2=S)cc1 [SACC-0087120]	1.11 µM	< 0.0285 µM	3.16 µM	> 25 µM							
COc1cc2c(cc1OC)CN(c1ncnc3scc(-c4ccc(Cl)cc4)c13)CC2 [SACC-0095849]	> 25 µM	8.47 µM	0.393 µM	0.914 µM							
CN1c2ccccc2Oc2nnc(Cl)cc21 [SACC-0075838]					143%	*** (molecules which are either off-target or of low activity (<25 μM))	4.37 µM	0.0845 µM	> 25 µM	> 25 µM	
CC1=CC(=NNC(=S)NCc2ccccc2)CC1 [SACC-0029249]	> 25 µM	1.88 µM	> 25 µM	< 0.0285 µM							
CCOC(=O)c1[nH]c2ccc(Br)cc2c1N=C(C)N(C)C [SACC-0055903]					75%	*** (molecules which are either off-target or of low activity (<25 μM))	6.76 µM	6.02 µM	3.68 µM	2.63 µM	
O=C(NC(=S)NNC(=O)c1cc(-c2ccccc2)nc2ccccc12)c1cccs1 [SACC-0117741]					127%	*** (molecules which are either off-target or of low activity (<25 μM))	1.74 µM	< 0.0285 µM	1.89 µM	1.49 µM	
O=C(CSC1=NCCS1)c1ccc(Cl)cc1 [SACC-0064624]						*** (molecules which are either off-target or of low activity (<25 μM))	0.504 µM	0.21 µM	> 25 µM	> 25 µM	76%
C=C(NNC(=S)Nc1c(C)cccc1C)c1cc2ccccc2o1 [SACC-0037245]						*** (molecules which are either off-target or of low activity (<25 μM))	5.78 µM	4.43 µM	< 0.0285 µM	0.605 µM	63%
Cc1n[nH]c(C)c1N1C(=O)c2cccc3c(N4CCCCCC4)ccc(c23)C1=O [SACC-0027895]					84%	*** (molecules which are either off-target or of low activity (<25 μM))	> 25 µM	> 25 µM	> 25 µM	> 25 µM	
Cc1cccc(NC(=O)c2c(F)c(F)c(F)c(F)c2F)n1 [SACC-0037442]						*** (molecules which are either off-target or of low activity (<25 μM))	7.77 µM	< 0.0285 µM	> 25 µM	7.18 µM	52%
CCCc1cc(-c2cc(O)n3nc(C)c(CC)c3n2)no1 [SACC-0048722]						*** (molecules which are either off-target or of low activity (<25 μM))	4.17 µM	> 25 µM	< 0.0285 µM	4.32 µM	56%
Cc1cc(C(C)(C)C)cc(C)c1CSC(=N)N [SACC-0029825]					70%	*** (molecules which are either off-target or of low activity (<25 μM))	6.95 µM	< 0.0285 µM	5.46 µM	9.81 µM	
C=CCn1cnnc1SCC1CC1(Cl)Cl (stereo not shown) [SACC-0063031]						*** (molecules which are either off-target or of low activity (<25 μM))	0.246 µM	0.242 µM	17 µM	4.45 µM	80%
COC(=O)c1cc2c(s1)Oc1cc(C(F)(F)F)ccc1C(=S)N2 [SACC-0081272]						*** (molecules which are either off-target or of low activity (<25 μM))	1.48 µM	< 0.0285 µM	0.0485 µM	> 25 µM	74%
Cc1nc(C)c(C(=O)N(Cc2ccco2)C2CCN(c3ccc4c(c3)OCO4)CC2)s1 [SACC-0040154]					81%	*** (molecules which are either off-target or of low activity (<25 μM))	13.2 µM	3.09 µM	0.12 µM	1.24 µM	
O=C(Cn1cnc2ccccc21)NCc1ccc(OCc2ccccc2)cc1 [SACC-0115325]						*** (molecules which are either off-target or of low activity (<25 μM))	0.299 µM	> 25 µM	> 25 µM	> 25 µM	83%
CCN(CC)c1ccc2cc(C(N)=O)c(=NNC(=O)c3cccs3)oc2c1 [SACC-0052578]					166%	*** (molecules which are either off-target or of low activity (<25 μM))	> 25 µM	> 25 µM	> 25 µM	> 25 µM	
S=C(NCc1ccccc1)NN=C1CCC(c2ccccc2)CC1 (stereo not shown) [SACC-0131532]	16.6 µM	1.41 µM	> 25 µM	> 25 µM							
c1ccc(-c2csc3ncnc(Nc4ccc5c(c4)OCCO5)c23)cc1 [SACC-0011565]	0.0417 µM	> 25 µM	> 25 µM	1.22 µM							
Cc1nc(-c2ccc(CNc3ncnc4sccc34)o2)cs1 [SACC-0039825]	< 0.0285 µM	8.06 µM	> 25 µM	0.334 µM							
O=[N+]([O-])c1ccc2nc(Nc3ccc(Br)cc3)c(Nc3ccc(Br)cc3)nc2c1 [SACC-0005102]	1.08 µM	0.0832 µM	0.485 µM	0.177 µM							
C=CCNC(=S)NNC1=CC[C@@H](c2ccccc2)CC1 [SACC-0010978]	> 25 µM	9.82 µM	0.0677 µM	12.2 µM							
Clc1ccc(-c2csc3ncnc(N4CCN(c5ccccn5)CC4)c23)cc1 [SACC-0064924]	17.3 µM	< 0.0285 µM	11.9 µM	> 25 µM							
N#CC(=C(O)c1ccc(-c2ccc(Cl)cc2Cl)o1)c1nc2ccccc2c(=O)[nH]1 [SACC-0112961]	> 25 µM	< 0.0285 µM	0.243 µM	> 25 µM							
CN1/C(=C/C=C/c2ccc3ccccc3[n+]2C)C=Cc2ccccc21 [SACC-0072383]	0.326 µM	0.501 µM	0.294 µM	> 25 µM							
c1ccc(-c2csc3ncnc(N4CCCC4c4cccnc4)c23)cc1 (stereo not shown) [SACC-0011206]	> 25 µM	6.54 µM	17.5 µM	0.985 µM							
Cc1ccc(S(=O)(=O)Nc2nc(CN3CCCC3)nc3sc(C)c(C)c23)cc1 [SACC-0025777]	> 25 µM	0.106 µM	1.57 µM	> 25 µM							
CCC(CO)Nc1nc(CN2CCCCC2)nc2scc(-c3ccccc3)c12 (stereo not shown) [SACC-0046099]	> 25 µM	8.31 µM	3.58 µM	2.45 µM							
CCc1cc2c(NCc3ccco3)nc(C)nc2s1 [SACC-0047526]	> 25 µM	> 25 µM	> 25 µM	> 25 µM							
